Laboratory results as given in the Bradley open melting point set (2014).

First: Cc1ccc(Cl)c(Cl)c1 [3,4-dichlorotoluene]
Second: Cc1cccc(Br)c1 [3-bromotoluene]
The melting point of the first is higher: -15 °C for the first, -40 °C for the second.

Going from `NC(=O)c1ccc(F)c(F)c1` [3,4-difluorobenzamide] to `Cc1ccc(C(=O)O)cc1C` [3,4-dimethylbenzoic acid], the melting point rises from 133 °C to 166 °C.

First: O=C(O)Cc1ccc(O)c(O)c1 [3,4-dihydroxyphenylacetic acid]
Second: O=C(O)Cc1cccc(Cl)c1 [3-chlorophenylacetic acid]
The melting point of the first is higher: 129 °C for the first, 79 °C for the second.

Going from `CC=C(C)C(C)C` [3,4-dimethyl-cis-2-pentene] to `CC(CC(=O)O)CC(C)(C)C` (stereo not drawn) [3,5,5-trimethylhexanoic acid], the melting point rises from -114 °C to -70 °C.

Going from `Cc1ccc(N)cc1C` [3,4-dimethylaniline] to `Cc1cc(C)cc(N)c1` [3,5-dimethylaniline], the melting point falls from 51 °C to 10 °C.

Going from `CN1C(=O)OC(C)(C)C1=O` [3,5,5-trimethyloxazolidine-2,4-dione] to `CCOC(=O)c1[nH]c(C)c(C(C)=O)c1C` [3-acetyl-2,4-dimethyl-5-(ethoxycarbonyl)pyrrole], the melting point rises from 47 °C to 142 °C.

Going from `CC(C)(C)c1cc(C(=Nc2ccccc2)Nc2ccccc2)cc(C(C)(C)C)c1O` [3,5-Di-tert-butyl-4-hydroxy-N,N'-diphenyl-benzamidine] to `CC(C)(C)c1cc(CC(=O)O)cc(C(C)(C)C)c1O` [3,5-di-tert-butyl-4-hydroxyphenylacetic acid], the melting point rises from 131 °C to 156 °C.

Going from `O=C(Cl)c1cc([N+](=O)[O-])cc([N+](=O)[O-])c1` [3,5-Dinitrobenzoyl chloride] to `O=Cc1cc([N+](=O)[O-])cc([N+](=O)[O-])c1O` [3,5-dinitrosalicylaldehyde], the melting point rises from 69 °C to 73 °C.

Compared with `N#C/C=C/c1cc(C(F)(F)F)cc(C(F)(F)F)c1` [3,5-bis(trifluoromethyl)cinnamonitrile], `O=Cc1cc(Br)cc(Br)c1` [3,5-dibromobenzaldehyde] is higher in melting point: 82 °C for the first, 91 °C for the second.

First: O=Cc1cc(Br)c(O)c(Br)c1 [3,5-dibromo-4-hydroxybenzaldehyde]
Second: O=C(O)c1cc(Cl)c(O)c(Cl)c1 [3,5-dichloro-4-hydroxybenzoic acid]
The melting point of the first is lower: 182 °C for the first, 268 °C for the second.

Compared with `NNC(=O)c1cc(Cl)cc(Cl)c1` [3,5-dichlorobenzhydrazide], `O=C(O)c1cc(Cl)cc(Cl)c1` [3,5-dichlorobenzoic acid] is lower in melting point: 206 °C for the first, 186 °C for the second.

Compared with `Oc1cc(Cl)cc(Cl)c1` [3,5-dichlorophenol], `O=C(O)c1cc(Cl)cc(Cl)c1O` [3,5-dichlorosalicylic acid] is higher in melting point: 68 °C for the first, 224 °C for the second.

Compared with `COc1cc(N=C=S)cc(OC)c1` [3,5-dimethoxyphenyl isothiocyanate], `COc1cc(OC)c2c(c1)C(O)OC2=O` (stereo not drawn) [3-hydroxy-5,7-dimethoxy-2-benzofuran-1(3H)-one] is higher in melting point: 51 °C for the first, 185 °C for the second.

Compared with `Cc1cc(C)n(C(N)=O)n1` [3,5-dimethyl-1h-pyrazole-1-carboxamide], `Cc1cc(C)cc(O)c1` [3,5-dimethylphenol] is lower in melting point: 113 °C for the first, 63 °C for the second.

Compared with `CCC(C)(O)C#CC(C)(O)CC` (stereo not drawn) [3,6-dimethyl-4-octyn-3,6-diol], `CCCCCCCC(=O)CC` [3-decanone] is lower in melting point: 54 °C for the first, -4 °C for the second.

Compared with `CC(CCC(=O)O)C1CCC2C3C(O)CC4CC(O)CCC4(C)C3CC(=O)C12C` (stereo not drawn) [3,7-dihydroxy-12-oxocholan-24-oic acid], `C[C@]12CC[C@H](O)CC1=CC[C@@H]1[C@@H]2CC[C@]2(C)C(=O)CC[C@@H]12` [3-Beta-Hydroxy-5-Androsten-17-One] is lower in melting point: 221 °C for the first, 140 °C for the second.

First: CCCOC1CCC2(C)C(CC(=O)C3C2CCC2(C)C(OCCC)CCC32)C1 (stereo not drawn) [3,17-dipropoxyandrostan-7-one]
Second: COc1ccc(C2=CCC3(C)C(CCC4C3CCC3(C)C(OC(C)=O)CCC43)C2)cc1 (stereo not drawn) [3-(4-methoxyphenyl)androst-2-en-17-yl acetate]
The melting point of the first is lower: 163 °C for the first, 179 °C for the second.

Going from `O=C1Nc2ccccc2C[C@H]1c1ccccc1F` [3-(2-Fluorophenyl)-1,2,3,4-tetrahydro-2-quinolone] to `NC1=C(c2ccccc2)C(=O)c2ccccc21` [3-amino-2-phenylindenone], the melting point rises from 191 °C to 271 °C.

Compared with `Oc1cccc(C2CNCCN2)c1` (stereo not drawn) [3-(2-piperazinyl)phenol], `Nc1cccc(O)c1` [3-aminophenol] is lower in melting point: 184 °C for the first, 124 °C for the second.

Going from `Nc1ccc(CCC(=O)O)cc1` [3-(4-aminophenyl)propionic acid] to `Nc1cccc(C(=O)O)c1` [3-aminobenzoic acid], the melting point rises from 134 °C to 175 °C.

Going from `OCC(O)COc1ccc(Cl)cc1` (stereo not drawn) [3-(4-chlorophenoxy)-1,2-propanediol] to `O=C(O)CC(CC(=O)O)c1ccc(Cl)cc1` [3-(4-chlorophenyl)glutaric acid], the melting point rises from 80 °C to 166 °C.

Going from `COc1c(B(O)O)cccc1C(=O)O` [3-(Dihydroxyboryl)-2-methoxybenzoic acid] to `COc1cccc(C(=O)O)c1` [3-methoxybenzoic acid], the melting point falls from 157 °C to 106 °C.

Going from `O=C(Nc1cccc(OC(=O)c2ccccc2)c1)c1ccccc1` [3-(benzoylamino)phenyl benzoate] to `O=C(O)c1cccc(C(=O)c2ccccc2)c1` [3-benzoylbenzoic acid], the melting point rises from 153 °C to 164 °C.

Going from `CC(C)(C)OC(=O)NC(CC(=O)O)c1ccccc1F` (stereo not drawn) [3-(boc-amino)-3-(2-fluorophenyl)propionic acid] to `COc1cccc(C(CC(=O)O)NC(=O)OC(C)(C)C)c1` (stereo not drawn) [3-(boc-amino)-3-(3-methoxyphenyl)propionic acid], the melting point falls from 143 °C to 82 °C.

Compared with `COC(=O)c1cccc(N=C=O)c1` [3-(methoxycarbonyl)phenyl isocyanate], `CC(=O)c1cccc(N=C=S)c1` [3-acetylphenyl isothiocyanate] is lower in melting point: 37 °C for the first, 24 °C for the second.

First: CSc1cccc(B(O)O)c1 [3-(methylthio)benzeneboronic acid]
Second: OB(O)c1cccc(Br)c1 [3-bromobenzeneboronic acid]
The melting point of the first is lower: 160 °C for the first, 166 °C for the second.

Going from `C/C(=C/C(=O)O)C(F)(F)F` [3-(trifluoromethyl)crotonic acid] to `Cc1cccc(C(=O)O)c1` [3-Methylbenzoic acid], the melting point rises from 29 °C to 110 °C.

Compared with `Oc1cccc(Nc2ccccc2)c1` [3-Anilinophenol], `O=C(c1ccccc1)c1cccc(O)c1` [3-hydroxybenzophenone] is higher in melting point: 81.5 °C for the first, 114 °C for the second.

First: O=C(O)c1cccc([N+](=O)[O-])c1 [3-Nitrobenzoic acid]
Second: O=[N+]([O-])c1cccc(O)c1 [3-Nitrophenol]
The melting point of the first is higher: 142 °C for the first, 97 °C for the second.

Going from `CC(=O)CC(=O)Nc1ccccc1` [3-Oxo-N-phenylbutanamide] to `CC(N)CCc1ccccc1` (stereo not drawn) [3-amino-1-phenylbutane], the melting point falls from 86 °C to -50 °C.

Compared with `CC(=O)c1cccc(C#N)c1` [3-acetylbenzonitrile], `N#Cc1cccc(C(=O)O)c1` [3-cyanobenzoic acid] is higher in melting point: 99 °C for the first, 222 °C for the second.

First: Nc1n[nH]c(-c2ccccc2)c1Br [3-amino-4-bromo-5-phenyl-1h-pyrazole]
Second: CCc1nnc2cc(-c3ccccc3)[nH]n12 [3-ethyl-6-phenyl-5H-pyrazolo[5,1-c][1,2,4]triazole]
The melting point of the first is lower: 114 °C for the first, 189 °C for the second.

Going from `Cc1ccc(B(O)O)cc1N` [3-amino-4-methylbenzeneboronic acid] to `Cc1ccc(B(O)O)cc1Cl` [3-chloro-4-methylbenzeneboronic acid], the melting point falls from 250 °C to 227 °C.

Going from `Nc1cnc2ccccc2c1` [3-aminoquinoline] to `Brc1cnc2ccccc2c1` [3-bromoquinoline], the melting point falls from 94 °C to 14 °C.

First: O=C(O)c1cccc(OCc2ccccc2)c1 [3-benzyloxybenzoic acid]
Second: N#Cc1cccnc1Oc1ccccc1 [3-cyano-2-phenoxypyridine]
The melting point of the first is higher: 134 °C for the first, 108 °C for the second.

Compared with `O=c1on(-c2ccccc2)c(Br)c1-c1ccccc1` [3-bromo-2,4-diphenylisoxazol-5(2H)-one], `Clc1cccc(-c2ccccc2)c1` [3-chlorobiphenyl] is lower in melting point: 166 °C for the first, 18 °C for the second.

Compared with `COc1ccc(C(=O)O)cc1Br` [3-bromo-4-methoxybenzoic acid], `COc1ccc(C#N)cc1Br` [3-bromo-4-methoxybenzonitrile] is lower in melting point: 220 °C for the first, 122 °C for the second.

Compared with `C#CCCO` [3-butyn-1-ol], `N#CCCO` [3-hydroxypropionitrile] is higher in melting point: -63 °C for the first, -46 °C for the second.

Going from `Cc1c(N)cccc1Cl` [3-chloro-2-methylaniline] to `Nc1cccc(Cl)c1` [3-chloroaniline], the melting point falls from 2 °C to -10 °C.

First: Clc1nsnc1-c1cccnc1 [3-chloro-4-(3-pyridyl)-1,2,5-thiadiazole]
Second: N#Cc1ccncc1Cl [3-chloro-4-cyanopyridine]
The melting point of the first is lower: 56 °C for the first, 73 °C for the second.

Going from `OB(O)c1ccc(F)c(Cl)c1` [3-chloro-4-fluorobenzeneboronic acid] to `CC(C)c1cccc(B(O)O)c1` [3-isopropylbenzeneboronic acid], the melting point falls from 258 °C to 78 °C.

First: N#Cc1cccc(Cl)c1 [3-chlorobenzonitrile]
Second: N#Cc1cccc(I)c1 [3-iodobenzonitrile]
The melting point of the first is higher: 41 °C for the first, 40 °C for the second.

Compared with `O=S(=O)(Cl)Cc1cccc(Cl)c1` [3-chlorophenylmethanesulfonyl chloride], `OCc1cccc(O)c1` [3-hydroxybenzyl_alcohol] is higher in melting point: 71 °C for the first, 72 °C for the second.

Going from `Cc1c(F)ccc([N+](=O)[O-])c1C` [3-fluoro-1,2-dimethyl-6-nitrobenzene] to `Cc1occc(=O)c1O` [3-hydroxy-2-methyl-4-pyrone], the melting point rises from 41 °C to 163 °C.

Going from `[O-][n+]1cccc(F)c1` [3-fluoropyridine n-oxide] to `COc1cccc(O)c1` [3-methoxyphenol], the melting point falls from 67 °C to -18 °C.

Going from `COc1ccc(OC)c2c1C(=O)OC2O` (stereo not drawn) [3-hydroxy-4,7-dimethoxy-2-benzofuran-1(3H)-one] to `COC1OC(=O)c2ccccc21` (stereo not drawn) [3-methoxy-2-benzofuran-1(3H)-one], the melting point falls from 192 °C to 44 °C.

For `COc1ccc2c(c1)CC2O` (stereo not drawn) [3-methoxybicyclo[4.2.0]octa-1,3,5-trien-7-ol], the melting point was 38 °C.
